For experiment [1], the system named is T1, rLacC.
T1 construct: gene lacC
Conditions: read-out: KM, μM / rLacC; 0.1 M citrate-phosphate pH 4.5, 24°C.

Experiment [2] deals with T2, rLacC.
T2 construct: gene lacC; recombinant secreted laccase, obtained previously (Savinova et al., 2017)
Put plainly: spectrophotometric oxidation assay, […] nm, non-linear fit. Format: biochemical, Trametes hirsuta. The following applies: 0.1 M citrate-phosphate pH 4.5, 24°C.

A further experiment concerns the target T3, LacA (Trametes hirsuta, UniProt A0A0A7M685).
T3 construct: native major secreted laccase, purified previously (Savinova et al., 2017)
T3 sequence (A0A0A7M685 22-520): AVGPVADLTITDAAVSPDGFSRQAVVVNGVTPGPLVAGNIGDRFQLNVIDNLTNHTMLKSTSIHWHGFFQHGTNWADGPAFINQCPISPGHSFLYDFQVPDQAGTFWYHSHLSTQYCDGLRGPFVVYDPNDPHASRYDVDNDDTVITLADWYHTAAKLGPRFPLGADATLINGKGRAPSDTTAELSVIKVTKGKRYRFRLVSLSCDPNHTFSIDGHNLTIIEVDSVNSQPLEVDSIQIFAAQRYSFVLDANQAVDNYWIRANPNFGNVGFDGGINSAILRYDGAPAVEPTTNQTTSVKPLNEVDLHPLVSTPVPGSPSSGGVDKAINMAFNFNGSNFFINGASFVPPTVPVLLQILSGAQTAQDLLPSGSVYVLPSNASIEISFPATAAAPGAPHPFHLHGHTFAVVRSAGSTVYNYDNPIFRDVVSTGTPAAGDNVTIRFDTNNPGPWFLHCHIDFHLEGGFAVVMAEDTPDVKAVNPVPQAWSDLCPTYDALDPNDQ
The description is as above. Type of experiment: biochemical. The following applies: 0.1 M citrate-phosphate pH 4.5, 24°C; cited from earlier work.

Experiment [3] concerns T2, rLacC. Described as above. Conditions: 0.1 M citrate-phosphate pH 4.5, 24°C. Type of experiment: biochemical, Trametes hirsuta. The source holds these as a separate data set.
Experiment [4] relates to T2, rLacC. The experiment is described as above. Type of experiment: biochemical, Trametes hirsuta. Conditions: 0.1 M citrate-phosphate pH 4.5, 24°C. The source holds these as a separate data set.
Experiment [5] relates to T2, rLacC. Described as above. Type of experiment: biochemical, Trametes hirsuta. The following applies: 0.1 M citrate-phosphate pH 4.5, 24°C. The source holds these as a separate data set.

Like-named read-outs stand apart in the source and are kept apart here.

Take `COc1cc(/C=C/C(=O)O)ccc1O` [Ferulic acid]: in the experiment with rLacC [1], the Km was 173 ± 38 µM. `COc1cccc(OC)c1O` [2,6-DMP, 2,6-dimethoxyphenol]: the Km in the experiment on rLacC [2] was 589 ± 75 µM. Turning to `COc1cc(/C=C/C(=O)O)cc(OC)c1O` [Synapic acid], the Km on LacA was 17 ± 2 µM; with rLacC [3] it was 71 ± 14 µM. `Oc1ccccc1O` [Catechol]: the Km in the experiment with rLacC [4] was found to be 16300 ± 1720 µM. With `COc1ccccc1O` [Guaiacol], in the experiment with rLacC [5], the Km is 15700 ± 337 µM.

The record behind these values is paper PMC6374638, “Evolutionary Relationships Between the Laccase Genes of Polyporales: Orthology-Based Classification of Laccase Isozymes and Functional Insight From Trametes hirsuta” (Frontiers in Microbiology, 2019).
